The nature of data set [1]: Batch hydroformylation of soy oil methyl esters; average rate of phosphonium ligand degradation product formation by 31P NMR (Comparative Experiment 5, Example 5). Format: physicochemical. The conditions noted are these: 30 psig, reaction time 4 days. As to the method: The hydroformylation of soy oil methyl esters was conducted at 100° C. for comparative purposes to illustrate the effect of temperature on the formation of ligand degradation products. Under a nitrogen atmosphere, a hydroformylation catalyst solution was prepared containing Ligand A (2.208 g, 5.866 mmol, initial ligand concentration in the reactor: 0.10M), Rh(CO)2acac (0.0366 g, 0.142 mmol), and 1-methyl-2-pyrrolidone (NMP, 16.05 g). Ligand A, the mono-sulfonated sodium salt of bis(dicyclohexyl)phenylphosphine, has the following structure.
Also prepared under nitrogen was a neat solution of soybean oil-derived methyl esters (33.95 g, 115.08 mmol), prepared by the transesterification of soybean oil with methanol using standard methods known in the art. Soybean oil contains polyunsaturated esters. Under nitrogen, the catalyst solution was added into a 100 mL stainless steel reactor, and the soy methyl esters were added into a substrate delivery cylinder attached to the reactor. […] The average rate of phosphonium ligand degradation product formation was determined using the NMR data.
The hydroformylation of soy oil methyl esters was conducted at 85° C. as an example of the invention to illustrate the effect of temperature on the formation of ligand degradation products. […] The average rate of phosphonium ligand degradation product formation was determined using the NMR data.

Data set [2] is described as follows: Continuous hydroformylation mini-plant with soy methyl esters; formation rate of phosphonium degradation products (Examples 6-8, Comparative Experiment 6). Format: physicochemical. As to the method: The formation rate of phosphonium degradation products was measured in a continuous hydroformylation mini-plant, which consisted of a reaction system comprised of three reactors in series and a product/catalyst separation system with catalyst recycle. The reactors were charged with a catalyst solution containing Ligand A (2.5 wt %) shown in Example 5 hereinabove, Rh(CO)2acac (500 ppm Rh), and 20 wt % 1-methyl-2-pyrrolidone (NMP). A mixture of soy methyl esters was fed continuously to the first reactor. The reactors were operated at 600 psig (4,137 kPa) pressure by continuously feeding a gaseous mixture of carbon monoxide and hydrogen (CO:H2=1:1 vol/vol). The reaction was conducted for 153 hours continuously at 85° C. The formation rate of phosphonium degradation products was measured to be 0.02 g/liter/day during this period. The pressure of carbon monoxide and hydrogen (CO:H2=1:1 vol/vol) was then reduced to 400 psig (2,758 kPa) while keeping the temperature and other conditions unchanged. The reaction was conducted for 59 hours, and the formation rate of phosphonium degradation products was measured to be 0.03 g/liter/day during this period. The results illustrate a low rate of phosphonium formation at a pressure greater than 300 psig, and further that phosphonium formation decreases with increasing pressure.
The formation rate of phosphonium degradation products was measured in a continuous hydroformylation mini-plant similar to the system described in Example 6. The reaction system was charged with a catalyst solution containing Ligand A (2.5 wt %) as shown in Example 5 hereinabove, Rh(CO)2acac (500 ppm Rh), and 20 wt % 1-methyl-2-pyrrolidone (NMP). Soy methyl esters were fed continuously to the reaction system. The reactors were operated at 400 psig (2,758 kPa) pressure by continuously feeding a gaseous mixture of carbon monoxide and hydrogen (CO:H2=1:1 vol/vol). The reaction was conducted continuously for 59 hours with all reactors at 85° C. The formation rate of phosphonium degradation products was measured to be 0.03 g/liter/day during this period.
For comparative purposes, Example 7 was repeated with the exception that the temperature of the last reactor was increased to 100° C. while keeping the temperature of all other reactors at 85° C. All other conditions remained unchanged. The reaction was conducted for 140 hours and the formation rate of phosphonium degradation products was measured to be 0.07 g/liter/day during this period.
The formation rate of phosphonium degradation products was measured in a continuous hydroformylation mini-plant similar to the one described in Example 6. The reaction system was charged with a catalyst solution containing Ligand A (2 wt %), Rh(CO)2acac (300 ppm Rh), and 30 wt % 1-methyl-2-pyrrolidone (NMP). Soy methyl esters, were fed continuously to the reaction system. The reactors were operated at 300 psig (2,068 kPa) pressure by continuously feeding a gaseous mixture of carbon monoxide and hydrogen (CO:H2=1:1 vol/vol). The reaction was conducted continuously for 150 hours at 95° C. The formation rate of phosphonium degradation products were measured to be 0.05 g/liter/day during this period. The pressure of the reaction system was increased to 600 psig (4136 kPa), and the temperature of the reaction system was decreased to 85° C., while keeping all other conditions unchanged. The reaction was conducted for 350 hours and the formation rate of phosphonium degradation products was measured to be 0.02 g/liter/day during this period.

As to `O=S(=O)([O-])c1cccc(P(C2CCCCC2)C2CCCCC2)c1.[Na+]` [Ligand A, mono-sulfonated sodium salt of bis(dicyclohexyl)phenylphosphine], in data set [1] (85° C., initial ligand concentration 0.14 M), the “Phosphonium formation rate Average” value worked out at 0.04 g/L/day. Also, in data set [1] (100° C., initial ligand concentration 0.10M), the “Phosphonium formation rate (Average g/L/day)” value came to 0.1 g/L/day. Besides, the “formation rate of phosphonium degradation products” value in data set [2] (Comparative Experiment 6, 400 psig, last reactor 100° C., other reactors 85° C., 140 hours) stood at 0.07 g/L/day; in data set [2] (Example 6, 400 psig, 85° C., 59 hours, Ligand A 2.5 wt %) it was 0.03 g/L/day; in data set [2] (Example 6, 600 psig, 85° C., 153 hours, Ligand A 2.5 wt %), 0.02 g/L/day; in data set [2] (Example 7, 400 psig, all reactors at 85° C., 59 hours, Ligand A 2.5 wt %) it was 0.03 g/L/day; in data set [2] (Example 8, 300 psig, 95° C., 150 hours, Ligand A 2 wt %), 0.05 g/L/day; in data set [2] (Example 8, 600 psig, 85° C., 350 hours, Ligand A 2 wt %), 0.02 g/L/day.
